From patent US6737383B1, “Herbicidal oxadiazolidines” (priority 1999, dated 2004)

Tests used:
bedstraw = test: Test B pre/postemergence bedstraw; assay type: in vivo, Galium aparine
In short: (§1)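 Test chemicals in a non-phytotoxic solvent mixture with surfactant were sprayed preemergence onto planted seeds and postemergence onto plants 2 to 18 cm tall (1- to 4-leaf stage). After twelve to sixteen days in a greenhouse, injury was visually rated against untreated controls from 0 (no effect) to 10 (complete control).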

blackgrass = test: Test B pre/postemergence blackgrass; assay type: in vivo, Alopecurus myosuroides
In short: as §1

surinam grass = test: Test B pre/postemergence surinam grass; assay type: in vivo, Brachiaria decumbens
In short: as §1

cocklebur = test: Test B pre/postemergence cocklebur; assay type: in vivo, Xanthium strumarium
In short: as §1

corn = test: Test B pre/postemergence corn; assay type: in vivo, Zea mays
In short: as §1

crabgrass = test: Test B pre/postemergence crabgrass; assay type: in vivo, Digitaria sanguinalis
In short: as §1

giant foxtail = test: Test B pre/postemergence giant foxtail; assay type: in vivo, Setaria faberii
In short: as §1

morningglory = test: Test B pre/postemergence morningglory; assay type: in vivo, Ipomoea hederacea
In short: as §1

rape = test: Test B pre/postemergence rape; assay type: in vivo, Brassica napus
In short: as §1

soybean = test: Test B pre/postemergence soybean; assay type: in vivo, Glycine max
In short: as §1

velvetleaf = test: Test B pre/postemergence velvetleaf; assay type: in vivo, Abutilon theophrasti
In short: as §1

wheat = test: Test B pre/postemergence wheat; assay type: in vivo, Triticum aestivum
In short: as §1

wild oat = test: Test B pre/postemergence wild oat; assay type: in vivo, Avena fatua
In short: as §1

smallflower flatsedge = test: Test B flood test smallflower flatsedge; assay type: in vivo, Cyperus difformis
In short: (§2)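 Plants were grown to the 2-leaf stage before treatment with test chemical, then held in a greenhouse for twelve to sixteen days. Injury was visually rated against untreated controls on a 0–10 scale, where 0 is no effect and 10 is complete control.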

duck salad = test: Test B flood test duck salad; assay type: in vivo, Heteranthera limosa
In short: as §2

bamyardgrass = test: Test B flood test barnyardgrass; assay type: in vivo, Echinochloa crus-galli
In short: as §2

[1] = Postemergence, Rate 125 g/ha, scale of 0 to 10 where 0 is no effect and 10 is complete control
[2] = Preemergence, Rate 62 g/ha, scale 0 to 10 (0 no effect, 10 complete control)
[3] = Preemergence, Rate 125 g/ha, 0 is no effect, 10 is complete control
[4] = Preemergence, Rate 250 g/ha, scale 0 to 10, 0 is no effect, 10 is complete control
[5] = Preemergence, Rate 500 g/ha, scale 0 to 10 (0 no effect, 10 complete control)
[6] = Rate 62 g/ha, Postemergence, scale of 0 to 10 where 0 is no effect and 10 is complete control
[7] = Rate 250 g/ha, Postemergence, scale 0 to 10, 0 is no effect, 10 is complete control
[8] = Rate 500 g/ha, Postemergence, scale 0 to 10
[9] = Postemergence (flood test species), Rate 125 g/ha, scale of 0 to 10 where 0 is no effect and 10 is complete control
[10] = Rate 62 g/ha, Postemergence section, flood test species, scale of 0 to 10 where 0 is no effect and 10 is complete control
[11] = Rate 250 g/ha, Postemergence (flood test), scale 0 to 10, 0 is no effect, 10 is complete control
[12] = Rate 500 g/ha, listed under Postemergence (flood test species), scale 0 to 10

CN(C(=O)n1oc(=O)n(Cc2ccccc2)c1=O)c1ccccc1 [Compound 153]
0: Bedstraw plant response rating (bedstraw; [1]) | Bedstraw plant response rating (bedstraw; [2]) | Bedstraw plant response rating (0 to 10 scale) (bedstraw; [3]) | Bedstraw plant response rating (bedstraw; [4]) | Bedstraw plant response rating (bedstraw; [5]) | Bedstraw plant response rating (bedstraw; [6]) | Plant response rating, Bedstraw (bedstraw; [7]) | Bedstraw plant response rating (bedstraw; Rate 500 g/ha, Postemergence, scale 0 to 10, 0 no effect, 10 complete control) | Blackgrass plant response rating (blackgrass; [1]) | Blackgrass plant response rating (blackgrass; [2]) | Blackgrass plant response rating (0 to 10 scale) (blackgrass; [3]) | Blackgrass plant response rating (blackgrass; [4]) | Blackgrass plant response rating (blackgrass; [5]) | Blackgrass plant response rating (blackgrass; [6]) | Plant response rating, Blackgrass (blackgrass; [7]) | Blackgrass plant response rating (blackgrass; [8]) | B. signalgrass plant response rating (surinam grass; [1]) | B. signalgrass plant response rating (surinam grass; [2]) | B. signalgrass plant response rating (0 to 10 scale) (surinam grass; [3]) | B. signalgrass plant response rating (surinam grass; [4]) | B. signalgrass plant response rating (surinam grass; [5]) | B. signalgrass plant response rating (surinam grass; [6]) | Plant response rating, B. signalgrass (surinam grass; [7]) | B. signalgrass plant response rating (surinam grass; Rate 500 g/ha, Postemergence, scale of 0 to 10 where 0 is no effect and 10 is complete control) | Cocklebur plant response rating (cocklebur; [1]) | Cocklebur plant response rating (cocklebur; [2]) | Cocklebur plant response rating (0 to 10 scale) (cocklebur; [3]) | Cocklebur plant response rating (cocklebur; [4]) | Cocklebur plant response rating (cocklebur; [5]) | Cocklebur plant response rating (cocklebur; [6]) | Plant response rating, Cocklebur (cocklebur; [7]) | Cocklebur plant response rating (cocklebur; [8]) | Corn plant response rating (corn; [1]) | Corn plant response rating (corn; [2]) | Corn plant response rating (0 to 10 scale) (corn; [3]) | Corn plant response rating (corn; [4]) | Corn plant response rating (corn; [5]) | Corn plant response rating (corn; [6]) | Plant response rating, Corn (corn; [7]) | Corn plant response rating (corn; [8]) | Crabgrass plant response rating (crabgrass; [1]) | Crabgrass plant response rating (crabgrass; [2]) | Crabgrass plant response rating (0 to 10 scale) (crabgrass; [3]) | Crabgrass plant response rating (crabgrass; [4]) | Crabgrass plant response rating (crabgrass; [5]) | Crabgrass plant response rating (crabgrass; [6]) | Plant response rating, Crabgrass (crabgrass; [7]) | Crabgrass plant response rating (crabgrass; [8]) | Giant foxtail plant response rating (giant foxtail; [1]) | Giant foxtail plant response rating (giant foxtail; [2]) | Giant foxtail plant response rating (0 to 10 scale) (giant foxtail; [3]) | Giant foxtail plant response rating (giant foxtail; [4]) | Giant foxtail plant response rating (giant foxtail; [5]) | Giant foxtail plant response rating (giant foxtail; [6]) | Plant response rating, Giant foxtail (giant foxtail; [7]) | Giant foxtail plant response rating (giant foxtail; [8]) | Morningglory plant response rating (morningglory; [1]) | Morningglory plant response rating (morningglory; [2]) | Morningglory plant response rating (0 to 10 scale) (morningglory; [3]) | Morningglory plant response rating (morningglory; [4]) | Morningglory plant response rating (morningglory; [5]) | Morningglory plant response rating (morningglory; [6]) | Plant response rating, Morningglory (morningglory; [7]) | Morningglory plant response rating (morningglory; [8]) | Rape plant response rating (rape; [1]) | Rape plant response rating (rape; [2]) | Rape plant response rating (0 to 10 scale) (rape; [3]) | Rape plant response rating (rape; [4]) | Rape plant response rating (rape; [5]) | Rape plant response rating (rape; [6]) | Plant response rating, Rape (rape; [7]) | Rape plant response rating (rape; [8]) | Soybean plant response rating (soybean; [1]) | Soybean plant response rating (soybean; [2]) | Soybean plant response rating (0 to 10 scale) (soybean; [3]) | Soybean plant response rating (soybean; [4]) | Soybean plant response rating (soybean; [5]) | Soybean plant response rating (soybean; [6]) | Plant response rating, Soybean (soybean; [7]) | Soybean plant response rating (soybean; [8]) | Velvetleaf plant response rating (velvetleaf; [2]) | Velvetleaf plant response rating (0 to 10 scale) (velvetleaf; [3]) | Velvetleaf plant response rating (velvetleaf; [4]) | Velvetleaf plant response rating (velvetleaf; [5]) | Velvetleaf plant response rating (velvetleaf; [6]) | Plant response rating, Velvetleaf (velvetleaf; [7]) | Velvetleaf plant response rating (velvetleaf; [8]) | Wheat plant response rating (wheat; [2]) | Wheat plant response rating (0 to 10 scale) (wheat; [3]) | Wheat plant response rating (wheat; [4]) | Wheat plant response rating (wheat; [5]) | Wheat plant response rating (wheat; [6]) | Plant response rating, Wheat (wheat; [7]) | Wheat plant response rating (wheat; [8]) | Wild oats plant response rating (wild oat; [2]) | Wild oats plant response rating (0 to 10 scale) (wild oat; [3]) | Wild oats plant response rating (wild oat; [4]) | Wild oats plant response rating (wild oat; [5]) | Wild oats plant response rating (wild oat; [6]) | Plant response rating, Wild oats (wild oat; [7]) | Wild oats plant response rating (wild oat; [8]) | S. Flatsedge plant response rating (smallflower flatsedge; [9]) | S. Flatsedge plant response rating (smallflower flatsedge; [10]) | Plant response rating, S. Flatsedge (smallflower flatsedge; [11]) | S. Flatsedge plant response rating (smallflower flatsedge; [12]) | Ducksalad plant response rating (duck salad; [9]) | Ducksalad plant response rating (duck salad; [10]) | Plant response rating, Ducksalad (duck salad; [11]) | Ducksalad plant response rating (duck salad; [12]) | Barnyardgrass plant response rating (bamyardgrass; [9]) | Barnyardgrass plant response rating (bamyardgrass; [10]) | Plant response rating, Barnyardgrass (bamyardgrass; [11]) | Barnyardgrass plant response rating (bamyardgrass; Rate 500 g/ha, listed under Postemergence (flood test species), scale 0 to 10, 0 no effect, 10 complete control)
